# Test results reported in patent US10407422B2, “Triazolopyridine inhibitors of myeloperoxidase” (priority 2015, dated 2019).
# What was measured:
# myeloperoxidase (MPO) [1] = biological target: T1, myeloperoxidase (MPO) (Homo sapiens (Human), UniProt P05164); experiment: MPO peroxidation assay (Amplex Red assay); format: biochemical; settings: potency range class
# Outline: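 IC50 values come from a four-parameter fit of rates taken from the linear 180-540 s portion of a 15 min kinetic read of resorufin (Ex 535/Em 590 nm). Amplex Red (200 μM) plus 10 mM H2O2 was added after a 10 min room-temperature preincubation of inhibitor with 200 pM MPO and 40 nM H2O2 in 100 mM KPi, pH 7.4.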
# myeloperoxidase (MPO) [2] = biological target: T1, myeloperoxidase (MPO); experiment: MPO chlorination assay (APF assay); format: biochemical; settings: potency range class
# Outline: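 Chlorinating activity followed by APF cleavage to fluorescein (485/535 nm, 3 min kinetic read) after adding APF and 10 μM H2O2. Beforehand, 200 pM enzyme, compound and 120 mM NaCl sat 10 min at room temperature in 100 mM KPi, pH 7.4. Initial-rate slopes gave % inhibition; IC50 by Hill-slope fit.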
# T1 sequence (P05164 49-745): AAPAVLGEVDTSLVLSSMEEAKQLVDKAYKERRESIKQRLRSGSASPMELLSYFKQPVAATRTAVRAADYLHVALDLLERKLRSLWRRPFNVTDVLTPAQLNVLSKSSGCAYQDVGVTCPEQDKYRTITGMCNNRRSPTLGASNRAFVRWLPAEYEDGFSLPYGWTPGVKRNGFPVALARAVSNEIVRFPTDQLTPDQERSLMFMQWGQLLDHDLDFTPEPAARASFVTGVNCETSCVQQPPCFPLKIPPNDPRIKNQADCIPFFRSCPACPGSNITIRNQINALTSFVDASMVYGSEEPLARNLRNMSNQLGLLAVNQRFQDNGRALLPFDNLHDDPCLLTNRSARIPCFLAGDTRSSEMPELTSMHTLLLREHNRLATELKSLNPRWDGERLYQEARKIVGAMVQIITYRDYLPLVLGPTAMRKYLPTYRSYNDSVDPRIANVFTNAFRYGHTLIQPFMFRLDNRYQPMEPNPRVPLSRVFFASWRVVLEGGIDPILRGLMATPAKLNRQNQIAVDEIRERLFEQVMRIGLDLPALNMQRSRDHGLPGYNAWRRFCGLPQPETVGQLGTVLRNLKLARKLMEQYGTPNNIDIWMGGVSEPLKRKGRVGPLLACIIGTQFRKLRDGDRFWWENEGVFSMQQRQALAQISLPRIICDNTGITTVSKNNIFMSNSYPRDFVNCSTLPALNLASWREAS
SMILES,IC50 (myeloperoxidase (MPO) [1]),IC50 (myeloperoxidase (MPO) [2])
"COc1cc(Cn2cc(Cc3cc(N)nc4[nH]nnc34)cn2)cc([C@@H]2CCNC2)c1 [Example 197, 7-{[1-({3-Methoxy-5-[(3S)-pyrrolidin-3-yl]phenyl}methyl)-1H-pyrazol-4-yl]methyl}-3H-[1,2,3]triazolo[4,5-b]pyridin-5-amine]",1 to 100 nM,1 to 100 nM
"Nc1cc(Cc2cnn(Cc3ccc4c(c3)CC[C@H]4N)c2)c2nn[nH]c2n1 [Example 268, 7-[(1-{[(1R)-1-Amino-2,3-dihydro-1H-inden-5-yl]methyl}-1H-pyrazol-4-yl)methyl]-3H-[1,2,3]triazolo[4,5-b]pyridin-5-amine]",1 to 100 nM,1 to 100 nM
"Nc1cc(Cc2cnn(Cc3cccc(-n4cncn4)c3)c2)c2nn[nH]c2n1 [Example 178, 7-((1-(3-(1H-1,2,4-Triazol-1-yl)benzyl)-1H-pyrazol-4-yl)methyl)-3H-[1,2,3]triazolo[4,5-b]pyridin-5-amine]",1 to 100 nM,101 to 999 nM
"Nc1cc(Cc2cnn(Cc3ccc4c(c3)C(C(F)(F)F)NCC4)c2)c2nn[nH]c2n1 (centres unmarked) [Example 262, 7-[(1-{[1-(Trifluoromethyl)-1,2,3,4-tetrahydroisoquinolin-7-yl]methyl}-1H-pyrazol-4-yl)methyl]-3H-[1,2,3]triazolo[4,5-b]pyridin-5-amine]",101 to 999 nM,101 to 999 nM
"Nc1cc(Cc2cnn(C(CCCO)c3ccccc3)c2)c2nn[nH]c2n1 (centres unmarked) [Example 146, 4-[4-({5-Amino-3H-[1,2,3]triazolo[4,5-b]pyridin-7-yl}methyl)-1H-pyrazol-1-yl]-4-phenylbutan-1-ol]",101 to 999 nM,101 to 999 nM
"Nc1cc(Cc2cnn(-c3cccc(Cc4ccccc4)c3)c2)c2nn[nH]c2n1 [Example 21, 7-((1-(3-Benzylphenyl)-1H-pyrazol-4-yl)methyl)-3H-[1,2,3]triazolo[4,5-b]pyridin-5-amine]",1 to 100 nM,101 to 999 nM
"CN(C)C(=O)[C@@H]1C[C@@H](Oc2cccc(Cn3cc(Cc4cc(N)nc5[nH]nnc45)cn3)c2)CN1 [Example 247, (2S,4R)-4-(3-{[4-({5-Amino-3H-[1,2,3]triazolo[4,5-b]pyridin-7-yl}methyl)-1H-pyrazol-1-yl]methyl}phenoxy)-N,N-dimethylpyrrolidine-2-carboxamide]",101 to 999 nM,101 to 999 nM
"Cc1ccnc(-n2cc(Cc3cc(N)nc4[nH]nnc34)cn2)c1 [Example 19, 7-((1-(4-Methylpyridin-2-yl)-1H-pyrazol-4-yl)methyl)-3H-[1,2,3]triazolo[4,5-b]pyridin-5-amine]",1 to 100 nM,1 to 100 nM
"Nc1cc(Cc2cnn(CC3CCCCC3)c2)c2nn[nH]c2n1 [Example 55, 7-((1-(Cyclohexylmethyl)-1H-pyrazol-4-yl)methyl)-3H-[1,2,3]triazolo[4,5-b]pyridin-5-amine]",1 to 100 nM,1 to 100 nM
"Cn1nc(Cn2cc(Cc3cc(N)nc4[nH]nnc34)cn2)c2ccccc21 [Example 137, 7-({1-[(1-Methyl-1H-indazol-3-yl)methyl]-1H-pyrazol-4-yl}methyl)-3H-[1,2,3]triazolo[4,5-b]pyridin-5-amine]",1 to 100 nM,101 to 999 nM
"Cc1[nH]c(-c2ccccc2)nc1-c1cccc(Cn2cc(Cc3cc(N)nc4[nH]nnc34)cn2)c1 [Example 279, 7-[(1-{[3-(5-Methyl-2-phenyl-1H-imidazol-4-yl)phenyl]methyl}-1H-pyrazol-4-yl)methyl]-3H-[1,2,3]triazolo[4,5-b]pyridin-5-amine]",1 to 100 nM,101 to 999 nM
"Nc1cc(Cc2cnn(-c3ccccc3F)c2)c2nn[nH]c2n1 [Example 4, 7-((1-(2-Fluorophenyl)-1H-pyrazol-4-yl)methyl)-3H-[1,2,3]triazolo[4,5-b]pyridin-5-amine]",1 to 100 nM,1 to 100 nM
"Cc1nc(-c2cccc(Cn3cc(Cc4cc(N)nc5[nH]nnc45)cn3)c2)no1 [Example 59, 7-((1-(3-(5-Methyl-1,2,4-oxadiazol-3-yl)benzyl)-1H-pyrazol-4-yl)methyl)-3H-[1,2,3]triazolo[4,5-b]pyridin-5-amine]",1 to 100 nM,101 to 999 nM
"Nc1cc(Cc2cnn(Cc3cccc(OC(F)(F)F)c3)c2)c2nn[nH]c2n1 [Example 60, 7-((1-(3-(Trifluoromethoxy)benzyl)-1H-pyrazol-4-yl)methyl)-3H-[1,2,3]triazolo[4,5-b]pyridin-5-amine]",1 to 100 nM,1 to 100 nM
"Nc1cc(Cc2cnn(Cc3cccc(O[C@H]4CCNC4)c3)c2)c2nn[nH]c2n1 [Example 240, 7-{[1-({3-[(3S)-Pyrrolidin-3-yloxy]phenyl}methyl)-1H-pyrazol-4-yl]methyl}-3H-[1,2,3]triazolo[4,5-b]pyridin-5-amine]",1 to 100 nM,1 to 100 nM
"Cc1nn(-c2ccccc2)nc1Cn1cc(Cc2cc(N)nc3[nH]nnc23)cn1 [Example 114, 7-((1-((5-Methyl-2-phenyl-2H-1,2,3-triazol-4-yl)methyl)-1H-pyrazol-4-yl)methyl)-3H-[1,2,3]triazolo[4,5-b]pyridin-5-amine]",1 to 100 nM,101 to 999 nM

SMILES,IC50 (myeloperoxidase (MPO) [1]),IC50 (myeloperoxidase (MPO) [2])
"Nc1cc(Cc2cnn(Cc3ccc4c(c3)C(=O)NCC4)c2)c2nn[nH]c2n1 [Example 259, 7-{[4-({5-Amino-3H-[1,2,3]triazolo[4,5-b]pyridin-7-yl}methyl)-1H-pyrazol-1-yl]methyl}-1,2,3,4-tetrahydroisoquinolin-1-one]",1 to 100 nM,101 to 999 nM
"Nc1cc(Cc2cnn(Cc3nc(-c4ccccc4)no3)c2)c2nn[nH]c2n1 [Example 120, 7-((1-((3-Phenyl-1,2,4-oxadiazol-5-yl)methyl)-1H-pyrazol-4-yl)methyl)-3H-[1,2,3]triazolo[4,5-b]pyridin-5-amine]",1 to 100 nM,101 to 999 nM
"Nc1cc(Cn2nnc3cc(Cl)ccc32)c2nn[nH]c2n1 [Example 168, 7-[(5-Chloro-1H-1,2,3-benzotriazol-1-yl)methyl]-3H-[1,2,3]triazolo[4,5-b]pyridin-5-amine]",1 to 100 nM,101 to 999 nM
CC(C)(C)[Si](C)(C)OCC(c1ccccc1)n1cc(Cc2cc(N)nc3[nH]nnc23)cn1 (centres unmarked) [Example 144],101 to 999 nM,101 to 999 nM
"Nc1cc(Cc2cnn(Cc3cccc([C@@H]4CNCCO4)c3)c2)c2nn[nH]c2n1 [Example 257, 7-{[1-({3-[(2R)-Morpholin-2-yl]phenyl}methyl)-1H-pyrazol-4-yl]methyl}-3H-[1,2,3]triazolo[4,5-b]pyridin-5-amine]",1 to 100 nM,1 to 100 nM
"Cn1nnc2cc(Cn3cc(Cc4cc(N)nc5[nH]nnc45)cn3)ccc21 [Example 179, 7-({1-[(1-Methyl-1H-1,2,3-benzotriazol-5-yl)methyl]-1H-pyrazol-4-yl}methyl)-3H-[1,2,3]triazolo[4,5-b]pyridin-5-amine]",1 to 100 nM,101 to 999 nM
"Nc1cc(Cc2cnn(Cc3ccc(C(=O)O)cc3)c2)c2nn[nH]c2n1 [Example 46, 4-((4-((5-Amino-3H-[1,2,3]triazolo[4,5-b]pyridin-7-yl)methyl)-1H-pyrazol-1-yl)methyl)benzoic acid]",1000 to 10000 nM,1000 to 10000 nM
"Nc1cc(Cc2cnn(Cc3cccc([C@H]4CNC(Cc5ccccc5)C4)c3)c2)c2nn[nH]c2n1 (stereo partly drawn) [Example 203, 7-{[1-({3-[(3S)-5-benzylpyrrolidin-3-yl]phenyl}methyl)-1H-pyrazol-4-yl]methyl}-3H-[1,2,3]triazolo[4,5-b]pyridin-5-amine]",1 to 100 nM,1 to 100 nM
"Nc1cc(Cc2cnn(Cc3ccc(C(=O)NCc4ccccn4)cc3)c2)c2nn[nH]c2n1 [Example 80, 4-{[4-({5-Amino-3H-[1,2,3]triazolo[4,5-b]pyridin-7-yl}methyl)-1H-pyrazol-1-yl]methyl}-N-(pyridin-2-ylmethyl)benzamide]",1 to 100 nM,101 to 999 nM
"Nc1cc(Cc2cnn(Cc3ccc(CNC(=O)CN4CCCC4)cc3)c2)c2nn[nH]c2n1 [Example 253, N-[(4-{[4-({5-Amino-3H-[1,2,3]triazolo[4,5-b]pyridin-7-yl}methyl)-1H-pyrazol-1-yl]methyl}phenyl)methyl]-2-(pyrrolidin-1-yl)acetamide]",101 to 999 nM,101 to 999 nM
"Nc1cc(Cc2cnn(Cc3cc(-c4ccccc4)on3)c2)c2nn[nH]c2n1 [Example 121, 7-((1-((5-Phenylisoxazol-3-yl)methyl)-1H-pyrazol-4-yl)methyl)-3H-[1,2,3]triazolo[4,5-b]pyridin-5-amine]",1 to 100 nM,101 to 999 nM
"CC(C)(C)OC(=O)N1CCc2ccc(Cn3cc(Cc4cc(N)nc5[nH]nnc45)cn3)cc2C1 [Example 148, tert-Butyl 7-{[4-({5-amino-3H-[1,2,3]triazolo[4,5-b]pyridin-7-yl}methyl)-1H-pyrazol-1-yl]methyl}-1,2,3,4-tetrahydroisoquinoline-2-carboxylate]",101 to 999 nM,101 to 999 nM
"Nc1cc(Cc2cnn(Cc3ccc(F)c(Br)c3)c2)c2nn[nH]c2n1 [Example 277, 7-({1-[(3-Bromo-4-fluorophenyl)methyl]-1H-pyrazol-4-yl}methyl)-3H-[1,2,3]triazolo[4,5-b]pyridin-5-amine]",1 to 100 nM,1 to 100 nM
"Nc1cc(Cc2cnn(CCc3ccccc3)c2)c2nn[nH]c2n1 [Example 40, 7-((1-Phenethyl-1H-pyrazol-4-yl)methyl)-3H-[1,2,3]triazolo[4,5-b]pyridin-5-amine]",1 to 100 nM,1 to 100 nM
"Nc1cc(Cc2cnn(Cc3cc([C@@H]4CCNC4)ccc3C(F)(F)F)c2)c2nn[nH]c2n1 [Example 193, 7-{[1-({5-[(3S)-Pyrrolidin-3-yl]-2-(trifluoromethyl)phenyl}methyl)-1H-pyrazol-4-yl]methyl}-3H-[1,2,3]triazolo[4,5-b]pyridin-5-amine]",1 to 100 nM,101 to 999 nM
